From paper PMC11808136, “Screening and identification of host signaling pathways for alleviating influenza-induced production of pro-inflammatory cytokines, IP-10, IL-8, and MCP-1, using a U937 cell-based influenza model” (Frontiers in Microbiology, 2025)
Counter-ions that a name gives are not always drawn. Like-named read-outs stand apart in the source and are kept apart here.

What was measured:
[1] = test system: IL-8 production in influenza virus-infected U937 cells (H1N1); experiment: cells; format: cell-based, Human
[2] = test system: IP-10 production in influenza virus-infected U937 cells (H1N1); experiment: cells; format: cell-based
[3] = test system: MCP-1 production in influenza virus-infected U937 cells (H1N1); experiment: cells; format: cell-based
in vitro = conditions: human
[4] = Homo sapiens, U-937, secondary screen, Supplemental Table 1, read-out: EC50 IL-8
[5] = Homo sapiens, U-937, secondary screen, Supplemental Table 1, read-out: EC50 IP-10
[6] = Homo sapiens, U-937, secondary screen, Supplemental Table 1, read-out: EC50 MCP-1
[7] = CC50, secondary screen, Supplemental Table 1
[8] = secondary screen, Supplemental Table 1, read-out: EC50 IL-8
[9] = secondary screen, Supplemental Table 1, read-out: EC50 IP-10
[10] = secondary screen, Supplemental Table 1, read-out: EC50 MCP-1
[11] = secondary screen, Supplemental Table 1
[12] = Homo sapiens, U-937, read-out: EC50 IP-10
[13] = Homo sapiens, U-937, read-out: EC50 MCP-1
[14] = Homo sapiens, U-937, read-out: EC50 IL-8

Compound	EC50 [1, 4] [nM]	EC50 [2, 5] [nM]	EC50 [3, 6] [nM]	CC50 (in vitro; [7]) [nM]	EC50 [1, 8] [nM]	EC50 [2, 9] [nM]	EC50 [3, 10] [nM]	CC50 (U937 cells; [11]) [nM]	further results
Cc1cc(Nc2cc(CN3CCOCC3)c3nc(C)c(Cc4ccc(Cl)cc4F)n3n2)n[nH]1 [LY2784544]	< 5	10	< 5	26000					
CNC(=O)c1cc(Oc2ccc(NC(=O)Nc3ccc(Cl)c(C(F)(F)F)c3)c(F)c2)ccn1 [Regorafenib (BAY 73-4506), Regorafenib]	610	1800	1710	20000					
Cc1ccc(NC(=O)c2cccc(C(C)(C)C#N)c2)cc1Nc1ccc2ncn(C)c(=O)c2c1 [AZ 628]					100	970	180	> 100000	
CCN(CC)CCNC(=O)c1c(C)[nH]c(/C=C2\C(=O)Nc3ccc(F)cc32)c1C [Sunitinib Malate]	50	660	350	24900					
COc1cc(Nc2ncc(F)c(Nc3ccc4c(n3)NC(=O)C(C)(C)O4)n2)cc(OC)c1OC [R406 (free base)]					2750	700	1130	> 100000	
C=CC(=O)Nc1cccc(Nc2nc(Nc3ccc(Oc4ccnc(C(=O)NC)c4)cc3)ncc2F)c1 [CNX-774]					10	1460	160	15500	
NC(=O)Nc1sc(-c2ccc(F)cc2)cc1C(N)=O [TPCA-1]					280	70	120	11000	
COc1cc(Nc2ncc(F)c(Nc3ccc4c(n3)N(COP(=O)(O)O)C(=O)C(C)(C)O4)n2)cc(OC)c1OC [Fostamatinib (R788), Fostamatinib]	340	500	170	40000					
O=C(Nc1ccc(-c2ccnc(Nc3ccc(N4CCOCC4)cc3)n2)cc1)C1CCCN1 (centres unmarked) [XL019]	510			26700					EC50 [2, 12]: 990 nM; EC50 [3, 13]: 940 nM
C=CC(=O)Nc1cccc(Oc2nc(Nc3ccc(N4CCN(C)CC4)cc3)ncc2Cl)c1 [WZ3146]					10	680	< 5		CC50 (U937 cells): 14000 nM
CC#CC(=O)Nc1ccc2ncnc(Nc3cccc(Br)c3)c2c1 [CL-387785 (EKI-785)]					420	410	640	7090	
O=C(c1ccc(Nc2nccc(-c3cc4ccccc4s3)n2)cc1)N1CCC(N2CCCC2)CC1 [IKK-16 (IKK Inhibitor VII)]					< 5	< 5	< 5	8900	
Cn1c(=O)c(F)c(Nc2ccc(I)cc2F)c2c(=O)n(C[C@@H](O)CO)cnc21 [TAK-733]		1400	40						EC50 [1, 14]: < 5 nM; CC50 (in vitro; CC50): 45000 nM
C[C@@H]1CCN(C(=O)CC#N)C[C@@H]1N(C)c1ncnc2[nH]ccc12 [Tofacitinib (CP-690550) Citrate]								> 100000	
O=C(Nc1cc(C(F)(F)F)cc(C(F)(F)F)c1)c1cc(Cl)ccc1O [IMD 0354]	20	80	60						CC50 (in vitro): 1100 nM
Cc1ccc(C(=O)Nc2ccc(CN3CCN(C)CC3)c(C(F)(F)F)c2)cc1C#Cc1cnc2[nH]ncc2c1 [GZD824]	< 5	< 5	< 5	4800					
CC(C)(C)c1cc(C=C(C#N)C#N)cc(C(C)(C)C)c1O [Tyrphostin 9]					40	90	80	8260	
CNS(=O)(=O)C[C@H]1CC[C@H](N(C)c2ncnc3[nH]ccc23)CC1 [Oclacitinib]	50			50000					EC50 [2, 12]: 180 nM; EC50 [3, 13]: 190 nM

Compound	EC50 [1, 4] [nM]	EC50 [2, 5] [nM]	EC50 [3, 6] [nM]	CC50 (in vitro; [7]) [nM]	EC50 [1, 8] [nM]	EC50 [2, 9] [nM]	EC50 [3, 10] [nM]	CC50 (U937 cells; [11]) [nM]	further results
Cc1cc(Nc2ncc3c(n2)N(C)C(=O)N(c2cc(NC(=O)c4cccc(C(F)(F)F)c4)ccc2C)C3)n(C)n1 [SC1]					< 5	10	40	> 100000	
COc1cc(Nc2ncc(F)c(Nc3ccc4c(n3)N(COP(=O)(O)O)C(=O)C(C)(C)O4)n2)cc(OC)c1OC [R788 (Fostamatinib) Disodium]					60	390	160	7400	
CN1CCN(c2cccc(Nc3nc4c(-c5ccc(S(C)(=O)=O)cc5)cccn4n3)c2)CC1 [CEP-33779]					360	220	240	10500	
Cc1cc(Nc2nc(N[C@@H](C)c3ccc(F)cc3)c(C#N)cc2F)n[nH]1 [AZ 960]	< 5			6000					EC50 [2, 12]: 10 nM; EC50 [3, 13]: < 5 nM
CCS(=O)(=O)N1CCN(c2ccc(Nc3ncc(C(N)=O)c(NC4CC4)n3)cc2)CC1 [Cerdulatinib (PRT062070, PRT2070), Cerdulatinib]	< 5	50	20	3500					
CC(C)n1nc(-c2ccc3oc(N)nc3c2)c2c(N)ncnc21 [INK 128 (MLN0128)]						120	40	5900	
C[C@@H]1CCN(C(=O)CC#N)C[C@@H]1N(C)c1ncnc2[nH]ccc12 [Tofacitinib]									CC50 (in vitro; CC50): > 100000 nM
CCOc1cc2ncc(C#N)c(Nc3ccc(F)c(Cl)c3)c2cc1NC(=O)/C=C/CN(C)C [Pelitinib (EKB-569), Pelitinib]		130	20	1700					
N#CCNC(=O)c1ccc(-c2ccnc(Nc3ccc(N4CCOCC4)cc3)n2)cc1 [CYT387]	300	480	30	5400					
C=CC(=O)Nc1ccc(CN2C(=O)N(c3cc(OC)cc(OC)c3)Cc3cnc(Nc4ccc(N5CCN(C)CC5)cc4)nc32)cc1 [FIIN-2]					30	320	140	16700	
C=CC(=O)N1CCC(Oc2cc3c(Nc4ccc(Cl)c(Cl)c4F)ncnc3cc2OC)CC1 [Poziotinib (HM781-36B), Poziotinib]	340	570	660	24100					
C[C@@H](Oc1ccc2[nH]nc(/C=C/c3cnn(CCO)c3)c2c1)c1c(Cl)cncc1Cl [LY2874455]	< 5	< 5	< 5	3400					
O=C(Nc1cccc(Nc2ncc(Br)c(NCCc3cnc[nH]3)n2)c1)N1CCCC1 [BX-912]					410	1050	360	> 100000	
N#CC[C@H](C1CCCC1)n1cc(-c2ncnc3[nH]ccc23)cn1 [Ruxolitinib (INCB018424), Ruxolitinib]		70	30						EC50 [1, 14]: 120 nM; CC50 (in vitro; CC50): 100000 nM
S-Ruxolitinib [S-Ruxolitinib (INCB018424)]									EC50 ([1]; read-out: EC50 IL-8): 30 nM; EC50 ([2]; read-out: EC50 IP-10): 80 nM; EC50 ([3]; read-out: EC50 MCP-1): 60 nM
Cc1ccc(NC(=O)c2ccc(CN3CC[C@H](N(C)C)C3)c(C(F)(F)F)c2)cc1Nc1nccc(-c2cncnc2)n1 [Bafetinib (INNO-406), Bafetinib]	590			100000					EC50 [2, 12]: 410 nM; EC50 [3, 13]: 860 nM
NC(=O)c1cnc2[nH]ccc2c1N[C@@H]1[C@@H]2CC3C[C@H]1C[C@@](O)(C3)C2 [Peficitinb (ASP015K, JNJ-54781532), Peficitinb]						20	10	34700	
Cc1c[nH]c2nc(Nc3ccc(N4CCN(C)CC4)c(F)c3)nc(-c3cccc(CC#N)c3)c12 [SGI-7079]					< 5	< 5	< 5	3850	
